Source: patent US8309515B2, “Poly(ethylene oxide)-block-poly(ester) block copolymers” (priority 2006, dated 2012)

Experiments:
[1] = system: B16-BL6 mouse melanoma cells; experiment: In vitro cytotoxicity, MTT assay; assay type: cell-based
Experimental: In vitro cytotoxicity activity of PEO-b-P(CL-DOX) and DOX loaded PEO-b-P(CL-DOX) block copolymer micelles were investigated against B16-BL6 mouse melanoma cells using MTT assay. […] After this time, MTT solution (20 μL; 5 mg/ml in sterile-filtered PBS) was added to each well and the plates were reincubated for a further 3 h. The formazan crystals were dissolved in DMSO, and the concentration was read by a Power Wave×340 microplate reader (Bio-Tek Instruments, Inc. USA) at 550 nm.

rat red blood cells = experiment: In vitro hemolysis against rat red blood cells; settings: 0.1% triton-X 100, positive control
Experimental: Blood was freshly obtained from a Sprague-Dawley rat by cardiac puncture, mixed with sterile isotonic PBS and centrifuged at 3,000 rpm for 5 minutes. The supernatant were pipetted out and the red blood cells were diluted with isotonic sterile PBS (pH: 7.4). The proper dilution factor was estimated from the UV-Vis absorbance of hemoglobin at 576 nm in the supernatant after RBCs were lysed by 0.1% triton X 100. A properly diluted sample of RBCs gave an absorbance of 0.4 to 0.5. […] After incubation the samples were kept in ice bath to stop further hemolysis. The samples were centrifuged at 14,000 rpm for 30 sec to precipitate the intact RBC cells. The supernatant was separated and analyzed for hemoglobin by UV-Vis spectrophotometer at 576 nm. The percentage of hemolyzed RBC was calculated using the equation: % of hemolysis=100 (Abs−Abs0)/(Abs100-Abs0), where Abs, Abs0 and Abs100 are the absorbance for the sample, control with no polymer or DOX and control with 0.1% triton X 100, respectively.

| Compound | times lower IC50 / higher cytotoxicity than PEO-b-P(CL-DOX) micelles ([1]; 24 h incubation) [times] | times lower IC50 than PEO-b-P(CL-DOX) micelles ([1]; 48 h incubation) [times] | hemolysis (rat red blood cells) [%] |
| --- | --- | --- | --- |
| COc1cccc2c1C(=O)c1c(O)c3c(c(O)c1C2=O)C[C@@](O)(C(=O)CO)C[C@@H]3O[C@H]1C[C@H](N)[C@H](O)[C@H](C)O1 [free DOX, doxorubicin] | 50 | 15 |  |
| triton-X 100 |  |  | 100 |
